# Source: patent US20200199102A1, “COMPOUNDS THAT PARTICIPATE IN COOPERATIVE BINDING AND USES THEREOF” (Revolution Medicines, Inc., priority 2017, published 2020)
# Where a SMILES comes first, the peptide text is derived from it. [ ]: non-standard residue; d: D form. MeBmt = C/C=C/C[C@@H](C)[C@@H](O)[C@H](NC)C(=O)O; NMeY = CN[C@@H](Cc1ccc(O)cc1)C(=O)O; NMeF = CN[C@@H](Cc1ccccc1)C(=O)O; NMeI = CC[C@H](C)[C@H](NC)C(=O)O; NMeT = CN[C@H](C(=O)O)[C@@H](C)O; NMeL = CN[C@@H](CC(C)C)C(=O)O; dNMeV = CN[C@@H](C(=O)O)C(C)C; NMeNva = CCC[C@H](NC)C(=O)O; NMeV = CN[C@H](C(=O)O)C(C)C; NMeA = CN[C@@H](C)C(=O)O; dNMeA = CN[C@H](C)C(=O)O; Abu = CC[C@H](N)C(=O)O; Sar = CNCC(=O)O
# Biological target: T1, Cyclophilin A (Homo sapiens, UniProt P62937)
# T1 construct: made in house
# Assay: AlphaLISA inhibition of binding of biotinylated Cyclosporin A to FLAG tagged Cyclophilin A
# Details: for % signal: AlphaLISA signal; for % signal / % inhibition of CsA binding to Cyclophilin A: test concentration not given; for IC50: read-out: IC50 value of CsA binding to Cyclophilin A
# Text: The binding of compounds of the invention to Cyclophilin A can be determined using the following protocol.
# This protocol utilizes Perkin Elmers AlphaLISA technology platform to detect cyclosporine analogues by measuring the inhibition of binding of biotinylated Cyclosporin A to FLAG tagged Cyclophilin A.
# 10×TBST Buffer (Boston BioProducts IBB-181), Biotinylated Cyclosporin A (in-house), FLAG tagged Cyclophilin A (in-house); anti-FLAG Donor beads (PerkinElmer AS103) and Streptavidin Acceptor beads (PerkinElmer AL125); Compounds in DMSO (in-house), Cyclosporin A (LC Labs Cat #C-6000).
# Add 20 uL of 6 nM Biotinylated CsA working stock to each well of the 96-well plate. Add 1 uL of test compound (100% DMSO) to each well of the plate using the Janus MTD head and P20 tips (except control wells). Add 1 uL of DMSO to negative control wells and 1 uL of 500 uM Cyclosporin A solution to positive control wells. In the dark, add 20 uL of combined Donor/Acceptor beads to each well. Incubate in the dark for 30 minutes at room temperature. In the dark, add 10 uL of 25 nM Flag tagged CypA working stock to each well. Incubate in the dark for 60 minutes at room temperature. Protect plate from light until reading on Biotek Synergy2 Plate Reader; Alphalisa 96-well protocol (680 excitation/615 emission).
# T1 sequence (P62937 whole entry, species assumed): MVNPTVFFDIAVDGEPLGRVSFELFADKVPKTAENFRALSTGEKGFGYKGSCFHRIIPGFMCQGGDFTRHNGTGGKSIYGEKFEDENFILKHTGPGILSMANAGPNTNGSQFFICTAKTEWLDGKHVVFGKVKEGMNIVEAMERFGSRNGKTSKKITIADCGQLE
Structure (SMILES),% signal [%],IC50 [nM],% inhibition of CsA binding to Cyclophilin A [%]
C/C=C/C[C@@H](C)[C@@H](O)[C@H]1C(=O)N[C@@H](CC)C(=O)N(C)CC(=O)N(C)[C@@H]([C@@H](C)O)C(=O)N[C@@H](C(C)C)C(=O)N(C)[C@@H](CC(C)C)C(=O)N[C@@H](CC(C)C)C(=O)N[C@H](C)C(=O)N(C)[C@@H](CC(C)C)C(=O)N(C)[C@@H](CC(C)C)C(=O)N(C)[C@@H](C(C)C)C(=O)N1C [Compound C51] (cyclo([MeBmt][Abu][Sar][NMeT]V[NMeL]L[dA][NMeL][NMeL][NMeV])),3.38,< 2000,96.62
C/C=C/C[C@@H](C)[C@@H](O)[C@H]1C(=O)N[C@@H](CC)C(=O)N(C)CC(=O)N(C)[C@@H](Cc2ccc(O)cc2)C(=O)N[C@@H](C(C)C)C(=O)N(C)[C@@H](CC(C)C)C(=O)N[C@@H](CC(C)C)C(=O)N[C@H](C)C(=O)N(C)[C@@H](CC(C)C)C(=O)N(C)[C@@H](CC(C)C)C(=O)N(C)[C@@H](C(C)C)C(=O)N1C [Compound C52] (cyclo([MeBmt][Abu][Sar][NMeY]V[NMeL]L[dA][NMeL][NMeL][NMeV])),7.40,< 2000,92.60
C/C=C/C[C@@H](C)[C@@H](O)[C@H]1C(=O)N[C@@H](CC)C(=O)N(C)CC(=O)N(C)[C@@H](C(C)C)C(=O)N[C@@H](C(C)C)C(=O)N(C)[C@@H](CC(C)C)C(=O)N[C@@H](CC(C)C)C(=O)N[C@H](C)C(=O)N(C)[C@@H](CC(C)C)C(=O)N(C)[C@@H](CC(C)C)C(=O)N(C)[C@@H](C(C)C)C(=O)N1C [Compound C53] (cyclo([MeBmt][Abu][Sar][NMeV]V[NMeL]L[dA][NMeL][NMeL][NMeV])),−0.01,< 2000,100.01
C/C=C/C[C@@H](C)[C@@H](O)[C@H]1C(=O)N[C@@H](CC)C(=O)N(C)CC(=O)N(C)[C@@H](CCC)C(=O)N[C@@H](C(C)C)C(=O)N(C)[C@@H](CC(C)C)C(=O)N[C@@H](CC(C)C)C(=O)N[C@H](C)C(=O)N(C)[C@@H](CC(C)C)C(=O)N(C)[C@@H](CC(C)C)C(=O)N(C)[C@@H](C(C)C)C(=O)N1C [Compound C54] (cyclo([MeBmt][Abu][Sar][NMeNva]V[NMeL]L[dA][NMeL][NMeL][NMeV])),0.90,< 2000,99.10
C/C=C/C[C@@H](C)[C@@H](O)[C@H]1C(=O)N[C@@H](CC)C(=O)N(C)CC(=O)N(C)[C@H](C(C)C)C(=O)N[C@@H](C(C)C)C(=O)N(C)[C@@H](CC(C)C)C(=O)N[C@@H](CC(C)C)C(=O)N[C@H](C)C(=O)N(C)[C@@H](CC(C)C)C(=O)N(C)[C@@H](CC(C)C)C(=O)N(C)[C@@H](C(C)C)C(=O)N1C [Compound C55] (cyclo([MeBmt][Abu][Sar][dNMeV]V[NMeL]L[dA][NMeL][NMeL][NMeV])),32.88,< 2000,67.12
C/C=C/C[C@@H](C)[C@@H](O)[C@H]1C(=O)N[C@@H](CC)C(=O)N(C)CC(=O)N(C)[C@@H](CCCC)C(=O)N[C@@H](C(C)C)C(=O)N(C)[C@@H](CC(C)C)C(=O)N[C@@H](CC(C)C)C(=O)N[C@H](C)C(=O)N(C)[C@@H](CC(C)C)C(=O)N(C)[C@@H](CC(C)C)C(=O)N(C)[C@@H](C(C)C)C(=O)N1C [Compound C56],2.44,< 2000,97.56
C/C=C/C[C@@H](C)[C@@H](O)[C@H]1C(=O)N[C@@H](CC)C(=O)N(C)CC(=O)N(C)[C@@H]([C@@H](C)CC)C(=O)N[C@@H](CC(C)C)C(=O)N(C)[C@@H](CC(C)C)C(=O)N[C@@H](CC(C)C)C(=O)N[C@H](C)C(=O)N(C)[C@@H](CC(C)C)C(=O)N(C)[C@@H](CC(C)C)C(=O)N(C)[C@@H](C(C)C)C(=O)N1C [Compound C57] (cyclo([MeBmt][Abu][Sar][NMeI]L[NMeL]L[dA][NMeL][NMeL][NMeV])),0.15,< 2000,99.85
C/C=C/C[C@@H](C)[C@@H](O)[C@H]1C(=O)N[C@@H](CC)C(=O)N(C)CC(=O)N(C)[C@@H](C)C(=O)N[C@@H](CC(C)C)C(=O)N(C)[C@@H](CC(C)C)C(=O)N[C@@H](CC(C)C)C(=O)N[C@H](C)C(=O)N(C)[C@@H](CC(C)C)C(=O)N(C)[C@@H](CC(C)C)C(=O)N(C)[C@@H](C(C)C)C(=O)N1C [Compound C58] (cyclo([MeBmt][Abu][Sar][NMeA]L[NMeL]L[dA][NMeL][NMeL][NMeV])),3.28,< 2000,96.72
C/C=C/C[C@@H](C)[C@@H](O)[C@H]1C(=O)N[C@@H](CC)C(=O)N(C)CC(=O)N(C)[C@H](C)C(=O)N[C@@H](CC(C)C)C(=O)N(C)[C@@H](CC(C)C)C(=O)N[C@@H](CC(C)C)C(=O)N[C@H](C)C(=O)N(C)[C@@H](CC(C)C)C(=O)N(C)[C@@H](CC(C)C)C(=O)N(C)[C@@H](C(C)C)C(=O)N1C [Compound C59] (cyclo([MeBmt][Abu][Sar][dNMeA]L[NMeL]L[dA][NMeL][NMeL][NMeV])),11.76,< 2000,88.24
C/C=C/C[C@@H](C)[C@@H](O)[C@H]1C(=O)N[C@@H](CC)C(=O)N(C)CC(=O)N(C)[C@@H](Cc2ccccc2)C(=O)N[C@@H](CC(C)C)C(=O)N(C)[C@@H](CC(C)C)C(=O)N[C@@H](CC(C)C)C(=O)N[C@H](C)C(=O)N(C)[C@@H](CC(C)C)C(=O)N(C)[C@@H](CC(C)C)C(=O)N(C)[C@@H](C(C)C)C(=O)N1C [Compound C60] (cyclo([MeBmt][Abu][Sar][NMeF]L[NMeL]L[dA][NMeL][NMeL][NMeV])),52.68,< 2000,47.32
C/C=C/C[C@@H](C)[C@@H](O)[C@H]1C(=O)N[C@@H](CC)C(=O)N(C)CC(=O)N(C)CC(=O)N[C@@H](CC(C)C)C(=O)N(C)[C@@H](CC(C)C)C(=O)N[C@@H](CC(C)C)C(=O)N[C@H](C)C(=O)N(C)[C@@H](CC(C)C)C(=O)N(C)[C@@H](CC(C)C)C(=O)N(C)[C@@H](C(C)C)C(=O)N1C [Compound C61] (cyclo([MeBmt][Abu][Sar][Sar]L[NMeL]L[dA][NMeL][NMeL][NMeV])),14.38,< 2000,85.62
C/C=C/C[C@@H](C)[C@@H](O)[C@H]1C(=O)N[C@@H](CC)C(=O)N(C)CC(=O)N(C)[C@@H](CC(C)C)C(=O)N[C@@H](CC(C)C)C(=O)N(C)[C@@H](CC(C)C)C(=O)N[C@@H](CC(C)C)C(=O)N[C@H](C)C(=O)N(C)[C@@H](CC(C)C)C(=O)N(C)[C@@H](CC(C)C)C(=O)N(C)[C@@H](C(C)C)C(=O)N1C [Compound C62] (cyclo([MeBmt][Abu][Sar][NMeL]L[NMeL]L[dA][NMeL][NMeL][NMeV])),27.12,< 2000,72.88
C/C=C/C[C@@H](C)[C@@H](O)[C@H]1C(=O)N[C@@H](CC)C(=O)N(C)CC(=O)N(C)[C@@H]([C@@H](C)O)C(=O)N[C@@H](CC(C)C)C(=O)N(C)[C@@H](CC(C)C)C(=O)N[C@@H](CC(C)C)C(=O)N[C@H](C)C(=O)N(C)[C@@H](CC(C)C)C(=O)N(C)[C@@H](CC(C)C)C(=O)N(C)[C@@H](C(C)C)C(=O)N1C [Compound C63] (cyclo([MeBmt][Abu][Sar][NMeT]L[NMeL]L[dA][NMeL][NMeL][NMeV])),4.64,< 2000,95.36
C/C=C/C[C@@H](C)[C@@H](O)[C@H]1C(=O)N[C@@H](CC)C(=O)N(C)CC(=O)N(C)[C@@H](Cc2ccc(O)cc2)C(=O)N[C@@H](CC(C)C)C(=O)N(C)[C@@H](CC(C)C)C(=O)N[C@@H](CC(C)C)C(=O)N[C@H](C)C(=O)N(C)[C@@H](CC(C)C)C(=O)N(C)[C@@H](CC(C)C)C(=O)N(C)[C@@H](C(C)C)C(=O)N1C [Compound C64] (cyclo([MeBmt][Abu][Sar][NMeY]L[NMeL]L[dA][NMeL][NMeL][NMeV])),28.50,< 2000,71.50
C/C=C/C[C@@H](C)[C@@H](O)[C@H]1C(=O)N[C@@H](CC)C(=O)N(C)CC(=O)N(C)[C@@H](C(C)C)C(=O)N[C@@H](CC(C)C)C(=O)N(C)[C@@H](CC(C)C)C(=O)N[C@@H](CC(C)C)C(=O)N[C@H](C)C(=O)N(C)[C@@H](CC(C)C)C(=O)N(C)[C@@H](CC(C)C)C(=O)N(C)[C@@H](C(C)C)C(=O)N1C [Compound C65] (cyclo([MeBmt][Abu][Sar][NMeV]L[NMeL]L[dA][NMeL][NMeL][NMeV])),0.27,< 2000,99.73
